Results on one compound are retold here after patent US20220218827A1, “DELIVERY OF THERAPEUTIC COMPOUNDS WITH IRON OXIDE NANOPARTICLES” (Memorial Sloan Kettering Cancer Center, priority 2012, published 2022).

In one assay the test system is PC3 tumors. Put plainly: Tumor growth in nude mice bearing PC3 tumors. The class given is in vivo. The following applies: versus control animals.
Assay [1] relates to human prostate adenocarcinoma cells (LNCaP). Put plainly: LNCaP cell viability, Alamar Blue method. The class given is cell-based. The following applies: 48 h, [Doxorubicin]final=7.5 μM, free or intercalated drug, read-out: reduction in cell viability.
Description: Cell viability and in vivo studies. LNCaP cells were seeded on black-walled, clear bottom 96-well plates at a cell density of 10,000 cells per well, supplemented with 100 iL 10% FBS-containing RPMI medium. […] Controls included cells incubated with unloaded nanoparticles or DMSO, corresponding to the free drug's final solvent concentration. Subsequently, the old medium was aspirated, and cell viability was assessed via the Alamar Blue method (Invitrogen). Briefly, the cells were supplemented with 10%-alamar-blue-containing medium (10% FBS-containing RPMI), followed by 3 h incubation in a humidified incubator (37° C., 5% CO2) and recording of fluorescence emission (λ ? =565 nm) with the SpectraMax M5 plate reader. […] Experiments were performed in triplicate unless otherwise stated, with the results are presented as mean±SEM.
Cell viability and in vivo studies. […] Subsequently, the old medium was aspirated, and cell viability was assessed via the Alamar Blue method (Invitrogen). Briefly, the cells were supplemented with 10%-alamar-blue-containing medium (10% FBS-containing RPMI), followed by 3 h incubation in a humidified incubator (37° C., 5% CO2) and recording of fluorescence emission ? ran, λειλ=585 nm) with the SpectraMax M5 plate reader.

Structures are written as SMILES.

Description for PC3 tumors: Nude, male mice (n=10) bearing PC3 tumors on their flanks were treated on day 0, day 2 and day 6 with 100 μι, either doxorubicin alone or doxorubi tin-loaded Feraheme®, both at a final doxorubicin concentration of 0.28 mM. Changes in tumor size were evaluated with a microcaliper, and at the end of the 8-day study the mice were euthanized, according to the Institutional Animal Care and Use Committee guidelines. • Data Analysis.
Specifically, the mice were treated with equal concentrations of the drug on day 0, 2 and 6, and tumor growth was determined with microcalipers. Control animals were treated with 100 μι, of 10% DMSO-containing PBS to match the DMSO content of the free doxorubicin injection, since the drug was dissolved in DMSO and diluted to the desired concentration in PBS. On day 6 and 8, the tumors were measured, and the change in tumor growth was determined by comparing the volume of tumors from treated animals with those of control ones.

With `COc1cccc2c1C(=O)c1c(O)c3c(c(O)c1C2=O)C[C@@](O)(C(=O)CO)C[C@@H]3O[C@H]1C[C@H](N)[C@H](O)[C@H](C)O1` [doxorubicin], in the assay on PC3 tumors (iv day 0, 2 and 6, measured day 8, 0.28 mM doxorubicin), the “suppression of tumor growth after three injections” value was 34%. Also, the “tumor regression after two injections” value in the assay with PC3 tumors (iv day 0 and 2, measured day 6, 100 μL of 0.28 mM doxorubicin) was “some tumor growth”. In assay [1], the cytotoxicity at […] came to 60%.
